# Data published in patent US6331555A, “Treatment of platelet derived growth factor related disorders such as cancers” (priority 1999, dated 2001).
# Key:
# C6 cells = test: Soft agar assay (SAA); type: cell-based; conditions: Rattus norvegicus, PDGF-R expression ++
# Method: (§1) After a 2 to 3 week incubation at 37° C., colonies larger than 50 μm were quantified using an Omnicon 3800 Tumor Colony counter.
# (§2) PDGF-R expression was measured qualitatively using a western blot.
# SKOV-3 cells = test: Soft agar assay (SAA); type: cell-based; conditions: Homo sapiens, SK-OV-3; PDGF-R expression -
# Method: as §1, §2
# SF767T cells = test: Soft agar assay (SAA); type: cell-based; conditions: Homo sapiens; PDGF-R expression ++
# Method: as §1, §2
# SKOV-3T cells = test: Soft agar assay (SAA); type: cell-based; conditions: Homo sapiens; PDGF-R expression ++
# Method: as §1, §2
# [1] = system: 7TD1 (B-cell hybridoma) cells; test: Survival, IP 7TD1 B-cell hybridoma in C57BL/6 mice; type: in vivo, mouse
# Method: Cell lines were grown in the appropriate media as described in Appendix 1. Cells were harvested and washed in sterile PBS or medium without FBS, resuspended to a suitable concentration, and injected into the IP cavity of […] of the appropriate strain. Prior to implantation of 7TD1 cells, C57BL/6 mice were primed by IP injection of 0.5 mL Pristane. SKOV3T cells were implanted into athymic mice without Pristane priming. Mice were observed daily for the occurrence of ascites formation. Individual animals were sacrificed when they presented with a weight gain of 40%, or when the IP tumor burden began to cause undue stress and pain to the animal.
# All animals in the control group died by day 9, while 3 of 8 animals in the A10-treated group survived past day 80.
# tumor xenografts = test: Xenografts of various tumor types in mice; type: in vivo
# Method: Cell lines were grown in appropriate medium (see Appendix 1). Cells were harvested at or near confluency with 0.05% Trypsin-EDTA and pelleted at 450×g for 10 min. Pellets were resuspended in sterile PBS or media (without FBS) to a particular concentration and the cells were implanted into the hindflank of mice. Tumor growth was measured over 3 to 6 weeks using venier calipers. Tumor volumes were calculated as a product of length×width×height unless otherwise indicated. P values were calculated using the Students' t-test.
# [2] = Ex vivo conversion of A10 to B11 in human plasma
# spleen cells = test: Normal immune function in mice responding to a primary immunization; type: in vivo, mouse; conditions: 20 mg/kg/day
# Source text: At the indicated times, animals were sacrificed, and the spleens were aseptically removed and placed into sterile medium. Spleens were processed into single cell suspensions by grinding between sterile frosted glass microscope slides. After a single wash to remove tissue debris, the spleen cells were resuspended in a hypotonic ammonium chloride buffer to lyse erythrocytes. Lymphocytes were washed and resuspended to the appropriate concentrations in complete medium, consisting of RPMI plus 10% heat-inactivated FBS, 2 mM glutamine, 50 μM β-mercaptoethanol, and penicillin-streptomycin. The responses of the lymphocytes were examined in the following assays according to accepted procedures (Current Protocols in Immunology. Coligan, J. E., Kruisbeek, A. M., Margulies, D. H., Shevach, E. M., Strober, W. (eds.) John Wiley and Sons, Inc., 1992).
# The T-cell mitogen, ConA, and the T-cell independent B-cell mitogen, LPS, were added to 96-well round-bottom wells at the indicated concentrations. Lymphocytes from normal, vehicle-dosed, and drug-dosed animals were added at a final concentration of 2.5×10^5 /well. Cultures were usually set up in triplicate or quadruplicate. The plates were incubated at 37° C. in a humidified atmosphere containing 5% CO2 for the indicated times. Supernatants (approximately 100 μL) were carefully removed from the wells and stored at -80° C. for lymphokine and immunoglobulin analyses. To measure proliferation of the lymphocytes, 1 μCi of ^3 H-thymidine was added to each well, and the plates were incubated for 6 hr. The cultures were harvested onto glass fiber filters, and the incorporated radioactivity was quantitated by liquid scintillation counting (Betaplate, Wallac).
# Lymphocytes from normal, vehicle-dosed, and drug-dosed animals were plated at 2.5×10^5 /well in round-bottom 96-well plates. Stimulator cells were then added at the same cell concentration. […] The plates were incubated for 3 to 4 days, at which time supernatants were harvested and the cultures were pulsed as described for the mitogen assays.
# Supernatants from mitogen and MLR cultures were assayed for IL-2 and IL-6 content by the ability to support the growth of factor-dependent cell lines. HT-2 cells (10^4 /well, IL-2-dependent) and 7TD1 cells (2×10^3 /well, IL-6-dependent) were plated in 96-well flat-bottom plates, in 50 μL/well. Supernatants were added in 50 μL/well, and the plates were incubated overnight (HT-2) or four days (7TD1). Cellular proliferation was determined in the MTT colorimetric assay (Appendix 3.1).
# Flat bottom 96-well EIA plates were coated with goat anti-mouse Ig antibodies (Southern Biotechnology) overnight at 4° C. The plates were blocked by the addition of PBS+1% BSA. After washing with PBS, supernatants from murine mitogen and MLR cultures were added and incubated at room temperature for 1 hr. The plates were washed with PBS, then HRP-labeled goat anti-mouse Ig antibodies were added and incubated at room temperature for 1 hr. The plates were washed and developed by the addition of substrate (ABTS).
# BALB/c mice were immunized SC with 50 μg keyhole limpet hemocyanin (KLH) suspended in complete Freund's adjuvant (CFA); control mice were mock-immunized with an emulsion of phosphate-buffered saline (PBS) in CFA. […] On day 14, all mice were sacrificed, and their spleen cells were assayed. In addition , immune e responses to KLH and tetanus toxoid were measured as described in Appendix 5.
smiles,measurement,setting,value
"Cc1oncc1C(=O)Nc1ccc(C(F)(F)F)cc1 [Compound A10, 5-methylisoxazole-4 carboxylic acid-(4-trifluromethyl)-anilide]",IC50,C6 cells,0.4 µM
same,IC50,SKOV-3 cells,6.3 µM
same,IC50,SF767T cells,0.5 to 2 µM
same,IC50,SKOV-3T cells,0.3 µM
same,survival,[1]; 15 mg/kg/day IP in DMSO,significantly increase the survival
same,animals surviving,"[1]; 15 mg/kg/day IP in DMSO 30 days, past day 80",3 of 8
same,growth of xenografts,"tumor xenografts; 12 to 20 mg/kg/day, glioma, SKOV3T, PA-1, A375, PC-3, Calu-6, D1B, L1210",effectively inhibited the growth
same,inhibition of glioma growth,"tumor xenografts; xenografted gliomas in mice, some animals, relative to untreated controls",greater than 95%
same,time of complete conversion to B11,"[2]; 25° C., human plasma",≤ 21 h
same,"A10 remaining, co-incubation of B11 and A10","[2]; fresh human plasma, after 21 hr",No A10 was detected after 21 hr
same,conversion to B11 in heat-inactivated plasma,"[2]; human, 15 min at 60° C.",does not occur
same,IL-2 production,spleen cells; Allo,0
same,IL-6 production,spleen cells; Allo,0
same,Ig production,spleen cells; Allo,0
same,IL-2 production,spleen cells; ConA,0
same,IL-6 production,spleen cells; ConA,0
same,Ig production,spleen cells; ConA,0
same,IL-2 production,spleen cells; KLH,0
same,IL-6 production,spleen cells; KLH,0
same,Ig production,spleen cells; KLH,0
same,IL-2 production,spleen cells; LPS,0
same,IL-6 production,spleen cells; LPS,0
same,Ig production,spleen cells; LPS,0
